The record followed here is ChEMBL document CHEMBL4421722, “Inhibitors of protein prenyltransferases” (2013).

This test is filed under the species Rattus norvegicus. The test is described as follows: Inhibition of rat recombinant geranylgeranyltransferase type I expressed in Escherichia coli assessed as residual enzyme activity for geranylgeranylation of K-Ras4B at 50 uM incubated for 30 mins in presence of [3H]GGPP by scintillation counting assay relative to control.
For `COc1ccc([C@@H]2CC=C(C(=O)O)[C@H](c3cccc(C)c3)N2S(=O)(=O)c2ccc(Cl)cc2)cc1`, the Activity is 85.8%. With `COc1ccc([C@@H]2C[C@@H](SCc3ccc(C(C)(C)C)cc3)[C@H](C(=O)O)CN2S(=O)(=O)c2ccc(C)cc2)cc1` the figure was 44.1%; with `CCc1ccc([C@@H]2C[C@@H](SCC(C)C)[C@H](C(=O)O)CN2S(=O)(=O)c2ccc(C)cc2)cc1`, 68.5%. The same measure for `Cc1ccc([C@@H]2C[C@@H](SC3CCCC3)[C@H](C(=O)O)CN2S(=O)(=O)c2ccc(Cl)cc2)cc1`: 93.2%. The same measure for `COc1ccc(S[C@@H]2C[C@@H](c3ccc(C)cc3)N(S(C)(=O)=O)C[C@H]2C(=O)O)cc1`: 99%. As to `CCCCCCS[C@@H]1C[C@@H](c2ccc(OC)c(OC)c2)N(S(=O)(=O)c2ccc(C)cc2)C[C@H]1C(=O)O`, the Activity came to 97.2%. For the compound `Cc1ccc(S(=O)(=O)N2[C@@H](c3ccc(Br)cc3)C(C(=O)O)=CC[C@H]2c2cccc(F)c2)cc1`, the Activity came out at 60.8%. In the case of `COc1ccc([C@@H]2CC=C(C(=O)O)[C@H](c3ccc(Br)cc3)N2S(=O)(=O)c2ccccc2C)cc1`, the Activity turned out to be 63.7%.

Turning to `C=CCS[C@@H]1C[C@@H](c2ccc(CC)cc2)N(S(=O)(=O)c2ccc(C)cc2)C[C@H]1C(=O)O`, the Activity was 89.6%. With `COc1ccc([C@@H]2CC=C(C(=O)O)[C@H](c3ccc(Cl)cc3)N2S(=O)(=O)c2ccccc2C)cc1` the figure was 80%; with `CCOc1ccc([C@@H]2CC=C(C(=O)O)[C@H](c3cccc(F)c3)N2S(=O)(=O)c2ccc(C)cc2)cc1`, 87.5%; with `COc1ccc([C@@H]2C[C@@H](Sc3ccc(C)cc3)[C@H](C(=O)O)CN2S(=O)(=O)c2ccccc2C)cc1`, 78.5%.

On to `COc1ccc(S[C@@H]2C[C@@H](c3cc(OC)c(OC)c(OC)c3)N(S(=O)(=O)c3ccc(C)cc3)C[C@H]2C(=O)O)cc1`, for which the Activity was found to be 110%. As for `COC(=O)c1ccccc1S(=O)(=O)N1[C@@H](c2cccc(Cl)c2)C(C(=O)O)=CC[C@H]1c1ccc(C)cc1`, the Activity is 56.2%.

Regarding `CCCCCCS[C@@H]1C[C@@H](c2ccc(C)cc2)N(S(=O)(=O)c2ccc(Cl)cc2)C[C@H]1C(=O)O`, the Activity amounted to 71.6%. As to `Cc1ccc(S(=O)(=O)N2[C@@H](c3ccc(Br)cc3)C(C(=O)O)=CC[C@H]2c2cccc(Cl)c2)cc1`, the Activity is 69.2%. With `Cc1ccc([C@@H]2CC=C(C(=O)O)[C@H](c3cccc(Cl)c3)N2S(=O)(=O)c2ccccc2)cc1` the figure was 56.7%.

As to `CC(C)(C)c1ccc([C@H]2C(C(=O)O)=CC[C@@H](c3ccccc3)N2S(C)(=O)=O)cc1`, the Activity was determined as 73.3%. The same measure for `CCCCS[C@@H]1C[C@@H](c2ccc(Cl)cc2)N(S(=O)(=O)c2ccc(C)cc2)C[C@H]1C(=O)O`: 81.5%; for `COc1cc([C@@H]2C[C@@H](Sc3ccc(Cl)cc3)[C@H](C(=O)O)CN2S(=O)(=O)c2ccc(C)cc2)cc(OC)c1OC`: 102%. The same measure for `Cc1ccc(S(=O)(=O)N2[C@@H](c3ccc(F)cc3)C(C(=O)O)=CC[C@H]2c2ccccc2)cc1`: 68.1%; for `COc1ccc([C@@H]2CC=C(C(=O)O)[C@H](c3cccc(Br)c3)N2S(=O)(=O)c2ccccc2C)cc1`: 51.9%; for `COc1cc([C@@H]2C[C@@H](SC3CCCC3)[C@H](C(=O)O)CN2S(=O)(=O)c2ccc(C)cc2)cc(OC)c1OC`: 105%. The same measure for `Cc1ccc([C@@H]2C[C@@H](SCCC(C)C)[C@H](C(=O)O)CN2S(=O)(=O)c2ccc(Cl)cc2)cc1`: 77.6%; for `CCCCCS[C@@H]1C[C@@H](c2ccccc2F)N(S(=O)(=O)c2ccc(C)cc2)C[C@H]1C(=O)O`: 61.4%; for `Cc1ccc(S(=O)(=O)N2C[C@@H](C(=O)O)[C@H](SCc3ccc(Cl)cc3)C[C@H]2c2ccc3c(c2)OCO3)cc1`: 37.4%.

On to `CCCS[C@@H]1C[C@@H](c2ccc3c(c2)OCO3)N(S(=O)(=O)c2ccc(C)cc2)C[C@H]1C(=O)O`, for which the Activity was found to be 83.6%. The same measure for `Cc1ccc(S(=O)(=O)N2C[C@@H](C(=O)O)[C@H](SCCC(C)C)C[C@H]2c2ccccc2)cc1`: 90%. With `COc1ccc([C@@H]2CC=C(C(=O)O)[C@H](c3cccc(F)c3)N2S(=O)(=O)c2ccccc2C)cc1` the figure was 86.6%; with `COC(=O)c1ccccc1S(=O)(=O)N1[C@@H](c2ccc(F)cc2)C(C(=O)O)=CC[C@H]1c1ccc(C)cc1`, 76.9%. For `Cc1ccc(S(=O)(=O)N2[C@@H](c3ccc(C(C)(C)C)cc3)C(C(=O)O)=CC[C@H]2c2ccccc2F)cc1`, the Activity stood at 84.2%. On to `Cc1ccc(S(=O)(=O)N2C[C@@H](C(=O)O)[C@H](SCc3ccccc3)C[C@H]2c2ccc3c(c2)OCO3)cc1`, for which the Activity came out at 63.1%. With `Cc1ccc(S[C@@H]2C[C@@H](c3ccc(C)cc3)N(S(C)(=O)=O)C[C@H]2C(=O)O)cc1` the figure was 108%; with `CCCCCS[C@@H]1C[C@@H](c2ccccc2)N(S(=O)(=O)c2ccc(C)cc2)C[C@H]1C(=O)O`, 77.2%.

In the case of `COc1ccc([C@@H]2C[C@@H](SCc3ccc(Cl)cc3)[C@H](C(=O)O)CN2S(=O)(=O)c2ccc(C)cc2)cc1`, the Activity came to 40.7%.

Take `CCOc1ccc([C@@H]2C[C@@H](SCc3ccccc3)[C@H](C(=O)O)CN2S(=O)(=O)c2ccc(C)cc2)cc1`: the Activity was determined as 50.9%. With `CCOc1ccc([C@@H]2C[C@@H](SCC(C)C)[C@H](C(=O)O)CN2S(=O)(=O)c2ccc(C)cc2)cc1` the figure was 83.1%; with `COc1ccc([C@@H]2C[C@@H](SCC(C)C)[C@H](C(=O)O)CN2S(=O)(=O)c2ccccc2C)cc1`, 79.7%. Take `COc1ccc([C@@H]2CC=C(C(=O)O)[C@H](c3ccc(Br)cc3)N2S(=O)(=O)c2ccccc2)cc1`: the Activity was 82.3%. As for `CCCCCS[C@@H]1C[C@@H](c2cccc(OC)c2)N(S(=O)(=O)c2ccc(C)cc2)C[C@H]1C(=O)O`, the Activity was determined as 105%.

For the compound `Cc1ccc(S(=O)(=O)N2[C@@H](c3cccc(Br)c3)C(C(=O)O)=CC[C@H]2c2ccc(Cl)cc2)cc1`, the Activity amounted to 56.6%.

On to `Cc1ccc(S(=O)(=O)N2C[C@@H](C(=O)O)[C@H](Sc3ccccc3)C[C@H]2c2ccccc2)cc1`, for which the Activity turned out to be 49.3%. With `COc1ccc([C@@H]2CC=C(C(=O)O)[C@H](c3cccc(Cl)c3)N2S(=O)(=O)c2ccc(C)cc2)cc1OC` the figure was 87.8%; with `CC(=O)C1=CC[C@@H](c2ccc(Cl)cc2)N(S(=O)(=O)c2ccc(C)cc2)C1`, 80.8%; with `C=CCS[C@@H]1C[C@@H](c2ccc(OC)cc2)N(S(=O)(=O)c2ccc(Cl)cc2)C[C@H]1C(=O)O`, 95.4%.

Regarding `COc1ccc([C@@H]2C[C@@H](SC3CCCC3)[C@H](C(=O)O)CN2S(=O)(=O)c2ccc(C)cc2)cc1OC`, the Activity worked out at 112%. The same measure for `CS(=O)(=O)N1[C@@H](c2cccc(F)c2)C(C(=O)O)=CC[C@H]1c1ccccc1`: 86.6%; for `Cc1ccc([C@@H]2CC=C(C(=O)O)[C@H](c3ccc(C(C)(C)C)cc3)N2S(=O)(=O)c2ccccc2C)cc1`: 80.9%; for `CC(=O)C1=CC[C@@H](c2ccccc2)N(S(=O)(=O)c2ccc(C)cc2)C1`: 98.8%. `CC(=O)C1=CC[C@@H](c2ccc(C)cc2)N(S(=O)(=O)c2ccccc2C)C1`: the Activity was found to be 85.3%. For `COc1cccc([C@@H]2C[C@@H](SCc3ccc(C(C)(C)C)cc3)[C@H](C(=O)O)CN2S(=O)(=O)c2ccc(C)cc2)c1`, the Activity stood at 39%. The same measure for `CCCCCCS[C@@H]1C[C@@H](c2ccc(OCC)cc2)N(S(=O)(=O)c2ccc(C)cc2)C[C@H]1C(=O)O`: 67.6%; for `COc1ccc([C@@H]2CC=C(C(=O)O)[C@H](c3cccc(Cl)c3)N2S(=O)(=O)c2ccc(C)cc2)cc1`: 89.3%; for `Cc1ccc(S(=O)(=O)N2[C@@H](c3cccc(Br)c3)C(C(=O)O)=CC[C@H]2c2ccc(C(C)C)cc2)cc1`: 41.1%. With `Cc1ccc(S[C@@H]2C[C@@H](c3ccc4c(c3)OCO4)N(S(=O)(=O)c3ccc(C)cc3)C[C@H]2C(=O)O)cc1` the figure was 77.8%. Take `COC(=O)c1ccccc1S(=O)(=O)N1[C@@H](c2ccc(Br)cc2)C(C(=O)O)=CC[C@H]1c1ccc(C)cc1`: the Activity is 77.4%. For the compound `Cc1ccc(S(=O)(=O)N2[C@@H](c3cccc(C)c3)C(C(=O)O)=CC[C@H]2c2ccc(C#N)cc2)cc1`, the Activity was 66.7%. As for `Cc1ccc(S(=O)(=O)N2[C@@H](c3cccc(F)c3)C(C(=O)O)=CC[C@H]2c2ccc(C(C)C)cc2)cc1`, the Activity came to 72.8%. The same measure for `CCCCCCS[C@@H]1C[C@@H](c2ccc(OC)cc2)N(S(=O)(=O)c2ccccc2C)C[C@H]1C(=O)O`: 72.9%; for `CCc1ccc([C@@H]2CC=C(C(=O)O)[C@H](c3cccc(Br)c3)N2S(=O)(=O)c2ccc(C)cc2)cc1`: 75.4%. The same measure for `CCc1ccc([C@@H]2C[C@@H](SCc3ccc(Cl)cc3)[C@H](C(=O)O)CN2S(=O)(=O)c2ccc(C)cc2)cc1`: 43.7%. For `Cc1ccc([C@H]2C(C(=O)O)=CC[C@@H](c3ccc(Cl)cc3)N2S(=O)(=O)c2ccccc2C)cc1`, the Activity was found to be 61.6%.

For `CS(=O)(=O)N1[C@@H](c2ccc(Br)cc2)C(C(=O)O)=CC[C@H]1c1ccccc1`, the Activity is 83.6%. With `CCS[C@@H]1C[C@@H](c2ccc(C)cc2)N(S(=O)(=O)c2ccccc2)C[C@H]1C(=O)O` the figure was 95%; with `Cc1ccc(S(=O)(=O)N2[C@@H](c3ccc(C(C)(C)C)cc3)C(C(=O)O)=CC[C@H]2c2ccc(C#N)cc2)cc1`, 87.7%. The same measure for `CCS[C@@H]1C[C@@H](c2ccc(OC)cc2)N(S(=O)(=O)c2ccccc2C)C[C@H]1C(=O)O`: 71.1%; for `COc1ccc([C@@H]2C[C@@H](SCc3ccc(C(C)(C)C)cc3)[C@H](C(=O)O)CN2S(=O)(=O)c2ccccc2C)cc1`: 87.2%.

Turning to `CCCS[C@@H]1C[C@@H](c2ccc(C)cc2)N(S(=O)(=O)c2ccccc2)C[C@H]1C(=O)O`, the Activity came out at 100%. As to `COc1ccc([C@@H]2C[C@@H](SCCC(C)C)[C@H](C(=O)O)CN2S(=O)(=O)c2ccccc2)cc1`, the Activity turned out to be 96.7%.
